The results in this text go back to patent US20230416247A1, “DRUG-LIKE MOLECULES AND METHODS FOR THE THERAPEUTIC TARGETING OF MICRORNA-21” (University of Washington, priority 2020, published 2023).

The subject of experiment [1] is pre-Let7 processing by Dicer-TRBP. Briefly: Dicer/TRBP in vitro processing of pre-Let7. It counts as biochemical, human. As to conditions: 2 μM compound vs no compound. How it is done:
In order to further assess the biochemical activity of our compounds, processing of pre-miR-21 and pre-Let7 by Dicer-TRBP in vitro was compared. FIGS. 9A and 9B show selective response in the rate of processing under early phase reaction conditions, before significant product builds up, for pre-miR21 compared to pre-Let7.
The results are specific to the initial rates (0.25-5 min) of the reaction. […] This is inevitable because Dicer binds the product tightly. This assay and method of inhibiting miR-21 synthesis is different than typical enzymatic assays. First, the small molecule is targeting the substrate of the enzymatic assay. High affinity compounds that change the structure of the substrate may reduce processing but might not inhibit processing completely. Rather, changes in the specificity constant (kcat/Km), are a better measure of small molecule inhibition than traditional Ki's.
Dicer/TRBP. The Dicer/TRBP enzyme complex was expressed and purified using published methods and stored at −80° C. in 20 μL aliquots until needed. Briefly, the gene encoding human full-length Dicer was inserted into a modified pFastBac1 vector (Invitrogen), which has an N-terminal glutathione-S-transferase (GST) tag. […] The clones were transformed into Rosetta 2 cells and the transformants were grown in LB media at 37° C. until the cells reached a density corresponding to an OD reading of 0.8 at 600 nm. […]

Experiment [2] relates to miR-16, miR-28, miR-182 in gastric (AGS) cells. Briefly: qRT-PCR of miR-16, miR-28, miR-182 in AGS cells. The class given is cell-based, human. Particulars: 24-72 hours post incubation, vs DMSO. How it is done: Levels of each microRNA were measured at different times post incubation (24-72 hours) by standard qRT-PCR, normalized to internal controls (U6 or U8 snRNA), in both gastric (AGC) and pancreatic (ASPC1) cell lines. Levels of the microRNA are generally the same, within experimental uncertainty, in the absence (DMSO) or presence of compound −0052 (30).
FIGS. 15A-15F show the levels of mature miR-16, miR-28, and miR-182 are not consistently affected by the compounds in both gastric (AGS) and pancreatic (ASPC1) cell lines, over multiple time scales (24-72 hours), relative to control where DMSO was added, but no compound.
Cell line maintenance. Using the Cancer Cell Line Encyclopedia (CCLE), in-house cancer cell lines were screened to identify cancer and tissue types with varying levels of miR-21 expression. Experiments were performed using the human-derived cell lines AGS (gastric cancer) and AsPC-1 (pancreatic cancer). […]
Quantitative real time PCR analysis. […] RNA concentration was assessed with the NanoDrop ND-1000 spectrophotometer (ThermoFisher Scientific). […] Expression of miR-21 was assessed utilizing the TaqMan microRNA assay (Applied Biosystems). […] All experiments were performed in triplicate, with all samples normalized to the internal controls and relative expression levels calculated using the 2^ΔΔCt method.
In general terms: Real-time PCR tracks product formation cycle by cycle.

Structures are written as SMILES.

Take `O=c1[nH]c(Nc2ccc(N3CCNCC3)cn2)nc2cccnc12` [Compound 25]: the “DICER/TRBP activity on pre-Let7” value in experiment [1] is “no significant difference in activity is observed”.

For the compound `O=c1[nH]c(Nc2ccc(N3CCNCC3)cn2)nc2cnccc12` [Compound 30], in experiment [2], the “cellular levels of miR-16, miR-28, miR-182” value is recorded as “does not affect cellular levels”.
